Measurements from a melting point compilation (Tetko et al.; mined from patent text by program, amines drawn as free bases though some values may be those of a salt).

Compound | melting point
Cc1cc2c(cc1C(F)(F)F)NC(=O)CC(c1cccc(-n3nncc3CNC3CC3)c1)=N2 | 181 °C
CC(C)C[C@H](NC(=O)OCc1ccccn1)C(=O)N[C@@H](C(C)C)[C@H](O)c1c(-c2ccccc2)c1=O | 52 to 59 °C
COc1cc(=O)n(-c2cccc(C(F)(F)F)c2)nc1-c1ccnn1-c1ccccc1 | 165 to 167 °C
N#Cc1cccnc1N1CCN(CC(=O)Nc2cc(C(F)(F)F)ccc2F)CC1 | 130 to 133 °C
CC(CSC(=O)c1ccccc1)C(=O)N1C(C(=O)O)CC2CCCCC21 (stereo not drawn) | 184 to 186 °C
CCN(CC)CCOc1ccc([N+](=O)[O-])cc1NC(C)=O | 117 °C
COC(=O)c1ccc(S(=O)(=O)n2c(=O)[nH]c3cc(Cl)ccc3c2=O)cc1 | > 230 °C
COc1ccc(-c2ccc(C(=O)Nc3ccc4cc(CN5CCCC5)cnc4c3C)cc2)cc1 | 190 to 192 °C
COC(=O)c1ccc(CNC(=O)c2ccc3n2Cc2ccccc2N(C(=O)COc2ccc(Cl)cc2C)C3)cc1 | 165 to 167 °C
Cc1nc(O)sc1C(=O)CBr | 162 °C
O=C1CCCN1CC1CCN(c2nc(C(F)(F)F)ncc2OCc2ccccc2)CC1 | 155 to 157 °C
CCCc1c(SCCCSc2ccc(-c3nnn[nH]3)cc2)ccc(C(C)=O)c1O | 160 to 162 °C
CCc1cnc2c(NC(=O)c3c(Cl)cccc3Cl)cccc2c1CN1CCN(C)C1=O | 202 to 203 °C
Cc1cccc(-c2nc(C3CCN(C)CC3)sc2-c2ccnc(NC(=O)c3ccccc3)c2)c1 | 151 to 152 °C
Cc1cccc(-c2cc(Cl)c3ccccc3n2)c1 | 75 to 77 °C
CCCCc1nc2c(N)nc3ccccc3c2n1CCCNC(=O)OC(C)(C)C | 193 °C
O=[N+]([O-])c1oc2ccc(Cc3nnn[nH]3)cc2c1-c1ccccc1 | 245 to 247 °C
N#Cc1ccc(NC(=S)Nc2ccc(NNC=O)cc2)cc1 | 180 to 182 °C
O=C(O)c1cc2c3ccccc3[nH]c(=S)n2n1 | 272 to 273 °C
O=c1c2cccc(O)c2nc(-c2ccc(O)cc2)n1-c1ccc(OCCCl)cc1 | 274 to 276 °C
COc1cc(Nc2nccc(-c3ccc(N)s3)n2)cc(OC)c1OC | 161 to 162 °C
Cc1nsc(OCC(Cl)(Cl)Cl)c1[N+](=O)[O-] | 60 to 61 °C

Compound | melting point
NC(N)=Nc1nc(-c2cccc(CCl)n2)cs1 | 260 to 261 °C
O=C(O)c1ccc(NCc2ccc(OCc3ccccc3)cc2)cc1 | 206 to 208 °C
CC(=O)N(C)c1cc(Br)cc(S(=O)(=O)c2ccccc2)c1 | 147 to 148 °C
COc1ccc(-c2cc(=O)c3c(O)cc(OCC4=COC(C)(C)O4)cc3o2)cc1OCC1=COC(C)(C)O1 | 155 to 156 °C
CNc1cc(Oc2ccc3c(C(=O)Nc4ccc(F)c(C(F)(F)F)c4)cncc3c2)ncn1 | 255 to 257 °C
CCOCCOc1c(C)cc(-c2ccc3c(c2)C=C(C(=O)Nc2ccc(CN(C)C4CCOCC4)cc2)CCS3(=O)=O)cc1C | 211 to 212 °C
COC(=O)COc1c(C)cc(SCc2ccc(-c3ccc(C(F)(F)F)cn3)cc2)c2c1CCCO2 | 156 to 157 °C
CCOC1=NS(=O)(=O)N=C1c1ccccc1 | 204 to 206 °C
COc1cc(C(=O)N2CCC(CCN3CCC(Nc4nc5ccccc5n4Cc4nccn4Cc4ccccc4)CC3)(c3ccc(F)cc3)C2)cc(OC)c1OC (stereo not drawn) | 95 to 100 °C
OC(c1ccncc1)c1c[nH]c2ccc(F)cc12 (stereo not drawn) | 171 to 173 °C
CC(=O)N[C@@H]1CN2C(=O)N(c3cc(Cl)nc(Cl)c3)C(=O)[C@@]2(Cc2ccc(OC(F)(F)F)cc2)C1 | 127 °C
Cc1oc(-c2ccccc2)nc1COc1ccc(/C=C/CO)cn1 | 116 to 117 °C
CC(C)OC(=O)Nc1ccc(O)c(Cl)c1 | 89 to 90 °C
O=C1C2=C(CCCC2)C(=O)N1c1cc(OC2CCCC2)c(Cl)cc1F | 69 to 75.2 °C
CCCC(c1cc(C(=O)O)ccc1OCc1ccc(Br)cc1)n1ccnc1 (stereo not drawn) | 187 to 189 °C
CCN(CC)CCOC(=O)c1cnc2ccn(-c3ccccc3)n2c1=O | 127 to 130 °C
O=C(NCCO)c1cccc(-c2cccc3oc(Cc4cccc(C(F)(F)F)c4)nc23)c1 | 132 to 133 °C
CON(C)C(=O)c1cc(Cl)nc(Cl)c1 | 69 to 70 °C
CCn1cc(C(=O)c2sc(NC(=O)c3ccncc3)nc2-c2ccco2)ccc1=O | 295 to 296 °C
CC1(O)OC(=O)C=C1c1ccccc1 (stereo not drawn) | 105 to 107 °C
Cc1cc(CC2(Cc3ccnc(C)c3)c3ccccc3-c3ncccc32)ccn1 | 177 to 179 °C

Results, then the compound that gave them:

melting point | Compound
200 to 202 °C | CCCCNC(=O)Nc1ncc2cc(-c3c(Cl)cccc3Cl)c(NC(=O)NCCCC)nc2n1
127 to 128 °C | O=C(CCS)NC1(C(=O)O)CCCC1
60 to 64 °C | COc1ccc(C2(C#Cc3ccnc(S(C)(=O)=O)n3)CCC(=O)CC2)cc1OC1CCCC1
46 to 48 °C | C=C(C)C(=O)NCCC#N
166 °C | O=C(NCCCC(F)(F)F)C(c1ccccc1)c1ccccc1
202 to 204 °C | CCOC(=O)c1cn(-c2cc(NC(=O)OCc3ccccc3)c(F)cc2F)c2cc(F)c(F)c(C)c2c1=O
163 to 164 °C | CCn1c(COC(=O)NC(C)=O)nc(C(C)C)c1Sc1cc(Cl)cc(Cl)c1
179 to 181 °C | O=Cc1ccc2c(c1)ncn2-c1cccc(Br)c1
114 to 116 °C | Oc1cccc2ccc3ccccc3c12
236 to 238 °C | CC1CN(c2n[nH]c(-c3ccc(Cl)cc3)c2-c2ccncc2)CC(C)N1 (stereo not drawn)
129 to 131 °C | NC(=O)N(O)Cc1ccsc1
127 to 129 °C | COc1ccc(N(Cc2cc(C(C)(C)C)c(O)c(C(C)(C)C)c2)S(=O)(=O)c2ccc(C)cc2)cn1
135 to 139 °C | CCCCC(OC(=O)Nc1ccc(-c2ncn(-c3ccc(OC(F)(F)F)cc3)n2)cc1)C(=O)OCC (stereo not drawn)
135 to 137 °C | Oc1ccc(C(=C2SCCCS2)c2ccccc2)cc1
56 to 57 °C | Fc1cc(Cl)c(OC(F)F)cc1-c1ncnc(C(F)F)c1Cl
249 to 250 °C | Cc1c(C(=O)Nc2ccc(N3CCC(N4CCOCC4)CC3)c(C#N)c2)cnn1-c1ccc(Cl)cc1
125 to 126 °C | COc1ccc(-c2cc(NCc3ccccc3)nnc2-c2ccc(OC)cc2)cc1
142 °C | CC(C)n1cnc2c(Nc3cccc(F)c3)nc(NCCO)nc21
120 to 122 °C | COC(=O)C(Cc1ccc(OCCn2ccc3cccnc32)cc1)C(=O)O (stereo not drawn)
196 to 201 °C | O=C(C=Cc1cc(O)c(O)c(C(F)(F)F)c1)c1ccccc1
135 °C | Cc1cc(N)nc(CCc2nc3cc(-c4ccc(S(=O)(=O)N5CCN(C)CC5)cc4)cnc3[nH]2)c1
120 °C | CCOC(=O)CNC(=O)Oc1c(Cl)cc(Cl)c2cccnc12
157 to 159 °C | Nc1cccc(-c2nn(Cc3oc4ccccc4c(=O)c3-c3ccccc3)c3ncnc(N)c23)c1
107 to 108 °C | CC(C)COc1ccc(COc2ccc(CC(=O)O)cc2Cl)cc1
246 to 248 °C | CCn1c(=O)c2c(N)n[nH]c2n(CC)c1=O
